Consider three molecules from patent US20230099969A1, “TWO-PHOTON FLUORESCENT PROBE COMPOUND SELECTIVE FOR AMYLOID BETA PLAQUES AND METHOD FOR IMAGING AMYLOID BETA PLAQUES USING SAME” (Korea University Research and Business Foundation, priority 2020, published 2023).

As usually defined, the Papp is a coefficient for how fast a substance crosses the barrier. As a reminder, the Kd is the concentration at which binding is half-saturated. A word on the pKa: it is the pH at which an ionisable group is half protonated.

SMILES strings stand for the structures. ≈ marks a conversion by molar mass, not a printed value. Bounds are passed on as bounds.

The nature of one data set: in vitro. The note with it: PAMPA.
For a further data set, the target named is T1, Aβ fibrils (Aβ1-42) (Homo sapiens, UniProt P05067).
T1 construct: lyophilized Aβ1-42 peptides were dissolved in 100% HFIP; purchased GenicBio Limited (Shanghai, China)
T1 sequence (P05067 672-713 limits assumed): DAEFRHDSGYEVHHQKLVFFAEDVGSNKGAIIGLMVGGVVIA
The data set is described as follows: Aβ1-42 saturation titration (fluorescence at 566 nm). Format: binding. How it is done: (§1) Aβ1-42 protein was prepared following a literature procedure (J. Hatai, L. Motiei, D. Margulies, J. Am. Chem. Soc. 2017, 139, 2136-2139). Briefly, lyophilized Aβ1-42 peptides were dissolved in 100% HFIP (1,1,1,3,3,3-hexafluoro-2-isopropanol) at a concentration of 2 mg mL^−1 and incubated at 25° C. for 2 h. After incubation, solution was removed under a gentle flow of argon. The peptide was dried using a lyophilizer for 40 h. AO (1 mg) was resuspended in aqueous NaOH (0.5 mL, 2 mM) and sonicated at 0° C. for 10 min. HFIP/NaOH-treated AO samples were diluted to 200 μM with PBS (0.6 mL, […], pH=7.4) and agitated using a shaker (Biofree) for 30 h. The solution was diluted to 20 μM with PBS (9.9 mL, 20 mM, pH=7.4), prior to each experiment.
Both Aβ1-42 and IRI-1 are virtually non-fluorescent, and a simplified formula can be used where the fluorescence intensity is directly proportional to the concentration of the (Aβ1-42-IRI-1) complex only:
With F: a fluorescence proportionality factor, [IRI1]: the initial concentration of IRI-1, [Aβ]: the initial concentration of Aβ1-42, N: the number of equivalent binding sites on the Aβ fibril relative to Aβ monomer, and Kd: the dissociation constant.
The results in FIG. 1D were obtained following a multi-parameter optimization of the experimental results following the fluorescence intensity at 566 nm, using a concentration of 10 μM Aβ1-42 and incremental concentrations of IRI-1 in PBS containing 2% DMF. The slit width was set at 3/3. The best fittings were obtained for N=¼, i.e. one binding site per 4 Aβ1-42, consistent with the hypothesized high affinity cross-β-sheet binding site on the protein fibril.

The target of another data set is T2, Aβ fibrils (Homo sapiens, UniProt P05067).
T2 construct: lyophilized Aβ1-42 peptides were dissolved in 100% HFIP; purchased GenicBio Limited (Shanghai, China)
T2 sequence (P05067 672-713 limits assumed): as above
The data set is described as follows: Fluorescence response in the presence of Aβ fibrils. The note with it: Aβ fibrils 20 μM versus PBS containing 2% DMF. As to the method:
(§2) To measure spectra in the presence of analytes, stock solutions of ThT and IRI-1 were prepared in DMF and added to solutions of the analytes in PBS to finally obtain a solution containing 2% DMF. All emission spectra were obtained after 2 min stirring at 37° C. The excitation and emission slit widths were 3/5.
as §1

A short description of data set [1]: Fluorescence response to potential interferents. Conditions: metal ions, amino acids, thiols 20 μM in PBS, λem 566 nm. How it is done: as §2
Data set [2] has as its target T3, bovine serum albumin (BSA) (Bos taurus, UniProt P02769).
T3 construct: purchased
The data set is described as follows: Fluorescence in the presence of BSA. Conditions: BSA 20 μM, PBS pH 7.4, 2% DMF. As to the method:
as §2

Data set [3] has as its target T4, human serum albumin (HSA) (Homo sapiens, UniProt P02768).
T4 construct: purchased
The data set is described as follows: Fluorescence in the presence of HSA. Conditions: HSA 20 μM, PBS pH 7.4, 2% DMF. How it is done:
as §2

A short description of data set [4]: Fluorescence in mouse brain homogenates. As to the method:
as §2
Male ICR mice (10-weeks-old) from Daehan Biolink Co. Ltd. (Eumseong, Korea) were used in this experiment. The mice were accommodated at a constant temperature (23±1° C.), humidity (60±10%), and a 12 h light/dark cycle with free access to water and food. The mice were handled in accordance with the Principle of Laboratory Animal Care (NIH Publication No. 80-23; revised 1978) and the Animal Care and Use Guidelines of KyungHee University, Seoul, Korea (approval number: KHUASP(SE)-18-130). Mice were anesthetized with tribromoethanol (20 μL/g of body weight, Sigma Aldrich, USA) and then, the whole brain was removed quickly. After the washing with 0.1 M PBS, the brain tissue was excised by scissors and homogenized with a pellet pestles cordless motor (Sigma Aldrich, USA) in 2 mL of 0.1 M PBS (pH 7.4). The mixture was centrifuged at 1,000 g (Smart R17 Plus centrifuge, Hanil Scientific, Korea) for 15 min at 4° C. and the supernatant was collected. The pooled brain homogenates of 3 mice were collected and diluted to a final volume of 6 mL with PBS and used for fluorescence studies.

Data set [5] is described as follows: Solubility of IRI-1 in PBS (absorbance at 405 nm). Format: physicochemical. The note with it: aqueous buffer, kinetic from dmso stock, PBS containing 2% DMSO, read-out: concentration up to which the dye exists as a monomer in PBS, above which soluble aggregates form. How it is done: The absorbance of IRI-1 at different concentrations in the 0-50 μM range was recorded at 405 nm in a PBS solution containing 2% DMSO. Deviation from linearity indicates the formation of aggregates.

Data set [6] in a line: pH-dependent absorbance, pKa fitting. The data set is classed as physicochemical. The note with it: PBS (10 mM) with pH adjustment; absorbance at 405 nm, pH 2-10, PBS 10 mM. As to the method:
The absorbance of IRI-1 (10 μM) was recorded in PBS (10 mM), with pH adjustment, to maintain a constant salt concentration.

The nature of another data set: Photostability in DMF. The data set is classed as physicochemical. Conditions: solution in DMF, halogen lamp irradiation 35 min. As to the method:
A solution of IRI-1 with an absorbance of 1.0 at the maximum absorbance wavelength was prepared in DMF. A 3100 K halogen lamp (Olympus LG-PS2; 12 V, 100 W) was used for irradiation and the absorbance was recorded at 5 min intervals for 35 min.

A further data set has as its system SH-SYSY cells. The experiment in a line: Cell viability MTT assay. The data set is classed as cell-based, human. Conditions: concentrations up to 50 μM, 24 h. How it is done:
Cell viability was assessed by the MTT (3-4,5-dimethylthiazol-2-yl)-2,5-diphenyltetrazolium bromide) assay. SH-SYSY cells (1×10^4 per well) were treated with various concentrations of IRI-1 in a 96-well plate for 24 h at 37° C.
(In general: Tetrazolium assays rely on reduction of a dye to a coloured formazan, in cell work by metabolically active cells.)

Data set [7] deals with T5, Aβ plaques (Homo sapiens, UniProt P05067).
T5 construct: from tissue; host or cells: brain of 5xFAD-Tg mice: ex vivo slices at 11 months, in vivo frontal cortex at 10-12 months
T5 sequence (P05067 672-713 limits assumed): as above
The data set is described as follows: Ex vivo two-photon microscopy imaging of brain slices. More on the design: species or system 5xFAD-Tg mice. The note with it: 20 μM, 2 h incubation, n=15. As to the method:
Brain tissues were isolated from 11-month-old 5xFAD-Tg mice. All animal protocols were approved by the Institutional Animal Care and Use Committee (IACUC) of KyungHee University, Korea (Approval number: KHUSAP (SE)-18-123). The isolated brain was immediately frozen with dry ice and horizontally sectioned by using a surgical blade (No. 10, […] safety razor Co., LTD, Japan). Sectioned brain tissues were immersed in a DMEM-buffered solution containing IBC 2 or IRI-1 (20 μM), and then incubated at 37° C. for different durations (0.5 h, 1 h and 2 h). After incubation, the brain tissues were washed with PBS (×3) and fixed in 4% paraformaldehyde solution until TPM imaging, using upright microscopy (Leica, Nussloch, Germany). […] TPM images were obtained by collecting the fluorescence from an emission channel of 580-779 nm. To compare the plaque and background signal of IBC 2 and IRI-1, TPM images analyzed by using Leica software. 15 Aβ-plaque regions as well as 15 background regions were randomly chosen for each dye at each incubation time. Bootstrap resampling (n=100,000) was performed on the 15 Aβ and background samples to estimate the population distribution of the signal to background ratios for each of the dyes at the different incubation times as well as to estimate the significance level of the difference of these population distributions.

The target in data set [8] is T5, Aβ plaques. The experiment in a line: In vivo two-photon microscopy imaging. More on the design: species or system 5xFAD-Tg mice; depth up to which individual Aβ plaques could be detected: unit not given here. As to the method: All animal studies and maintenance were approved by the Institutional Animal Care and Use Committee (IACUC) of Seoul National University, Korea. 10-12-month-old 5xFAD (Tg6799; Jackson Lab Stock No. 006554) AD model mice were anesthetized with the mixture of Tiletamine-Zolazepam (Virbac, France) and Xylazine (Bayer Korea, Korea) via intramuscular (IM) injection (1.2 mg kg^−1) and then fixed on a customized stereotactic heating plate (37° C., Live cell instrument, Seoul, Korea). The mouse scalp was sterilized with Povidone Iodine (Firson, Korea) and then removed. A drop of Epinephrine was applied to the incision site to relieve local pain and bleeding. The periosteum was also removed in this step. When the scalp and periosteum were clearly removed and the skull dried, a small hole (3 mm diameter) was carefully made in the parietal bone with a microdrill. A 5 mm round coverslip was attached to the surgery site with Loctite 454 and dental acrylate was applied around the site. A solution of IRI-1 in 25% DMSO/PBS (5 mg kg^−1) was injected intraperitoneally (i.p.) before TPM imaging. TPM live imaging was conducted using an LSM 7 MP two-photon laser-scanning microscope (Carl Zeiss Microscopy GmbH, Germany) equipped with a Chameleon-Ultra-II laser system (Coherent, USA). An appropriately tuned laser (780-920 nm wavelength, 30 mW intensity) was applied to the imaging site transiently. Emission signals were obtained through the red channel (555-610 nm), or blue channel (485-490 nm) NDD filter set. TPM images were processed and 3D reconstructed using Volocity Software (Perkin-Elmer, Waltham, Mass., USA).

Data set [9] in a line: BBB-penetrability PAMPA assay. A general note: In PAMPA a lipid-coated filter parts donor from acceptor wells.
Method: (§3) The BBB-PAMPA was conducted following the manufacturer's instructions (pION, Inc, MA, USA). […] The transmembrane side to the donor part was coated with BBB-lipid solution and 200 μL acceptor buffer was added in the upper chambers of the PAMPA sandwich plate. After incubation for 4 h at 25° C., all samples were transferred to a new U.V plate and then the U.V spectra were measured at a wavelength from 250 nm to 498 nm with a multifunctional microplate reader (Tecan, Infinite M200 Pro, San Jose, Calif., USA) and the permeability rate (Pe, 10^−6 cm/s) was determined using pION PAMPA Explorer software (ver3.8).
Setting [10] is: pH 7.4, Permeability classification.

T3 sequence (P02769 25-607): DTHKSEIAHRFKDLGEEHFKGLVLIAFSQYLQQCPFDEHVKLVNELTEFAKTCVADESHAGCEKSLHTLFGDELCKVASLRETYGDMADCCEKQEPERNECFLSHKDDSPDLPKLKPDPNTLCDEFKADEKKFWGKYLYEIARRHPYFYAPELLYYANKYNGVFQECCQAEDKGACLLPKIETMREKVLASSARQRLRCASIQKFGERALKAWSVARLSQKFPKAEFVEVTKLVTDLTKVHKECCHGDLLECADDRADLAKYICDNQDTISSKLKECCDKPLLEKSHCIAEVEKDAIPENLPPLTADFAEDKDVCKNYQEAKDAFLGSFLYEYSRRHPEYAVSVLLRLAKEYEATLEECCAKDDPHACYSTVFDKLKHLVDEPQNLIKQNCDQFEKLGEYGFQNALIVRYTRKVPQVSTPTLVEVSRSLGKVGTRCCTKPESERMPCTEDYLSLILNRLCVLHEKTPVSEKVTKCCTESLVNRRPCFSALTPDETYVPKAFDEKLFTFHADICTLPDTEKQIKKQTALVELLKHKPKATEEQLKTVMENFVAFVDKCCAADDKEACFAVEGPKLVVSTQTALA
T4 sequence (P02768 25-609): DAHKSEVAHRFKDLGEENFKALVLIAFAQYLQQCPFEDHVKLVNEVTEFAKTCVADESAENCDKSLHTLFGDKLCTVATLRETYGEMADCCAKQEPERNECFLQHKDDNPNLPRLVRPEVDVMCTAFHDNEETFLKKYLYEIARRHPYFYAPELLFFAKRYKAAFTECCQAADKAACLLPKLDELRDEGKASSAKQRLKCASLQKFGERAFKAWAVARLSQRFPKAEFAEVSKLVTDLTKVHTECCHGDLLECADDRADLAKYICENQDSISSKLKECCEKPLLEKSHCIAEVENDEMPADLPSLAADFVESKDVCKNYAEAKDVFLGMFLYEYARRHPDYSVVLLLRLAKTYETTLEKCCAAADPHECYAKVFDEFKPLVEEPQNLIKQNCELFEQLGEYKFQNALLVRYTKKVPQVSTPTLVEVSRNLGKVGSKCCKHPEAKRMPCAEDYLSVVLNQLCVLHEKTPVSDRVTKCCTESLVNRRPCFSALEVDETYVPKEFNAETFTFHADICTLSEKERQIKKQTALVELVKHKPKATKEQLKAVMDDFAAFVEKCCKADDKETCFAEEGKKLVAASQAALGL
Method for in vitro: as §3

Regarding `CC(=O)[C@H]1CC[C@H]2[C@@H]3CCC4=CC(=O)CC[C@]4(C)[C@H]3CC[C@]12C` [Progesterone, reference compound], the Papp at 4 h in “in vitro” (pH 7.4, Pe) was 39.5 ± 5.59 ×10⁻⁶ cm/s; in “in vitro” (setting [10]), over 0.4 ×10⁻⁶ cm/s.

In the case of `CN(C)c1ccc(-c2ccc3cc(C#N)c(=N)oc3c2)cc1` [IRI-1], at Aβ fibrils (Aβ1-42) (Aβ fibrils 10 μM, IRI-1 0-50 μM, PBS containing 2% DMF, nonlinear fitting, read-out: binding affinity toward Aβ fibrils, Kd), the Kd stood at 374 ± 115 nM. The “N, number of equivalent binding sites on the Aβ fibril relative to Aβ monomer” value on Aβ fibrils (Aβ1-42) (best fitting, one binding site per 4 Aβ1-42) is recorded as “¼”. Also, the “binding affinity relative to that previously reported for ThT” value at Aβ fibrils (Aβ1-42) (versus literature value for ThT) is “two- to three-folds stronger”. On Aβ fibrils, the “fluorescence enhancement in the presence of Aβ fibrils” value is reported as 167 fold. For the same molecule, in [1], the “fluorescent response to potential interferants” value is on record as “no or negligible fluorescence enhancement”. Besides, in data set [2], the “fluorescence enhancement in the presence of BSA” value is “only relatively weak fluorescence enhancement”. The “fluorescence enhancement in the presence of HSA” value in data set [3] was “only relatively weak fluorescence enhancement”. Further, in data set [4], the “fluorescence enhancement in the presence of mouse brain homogenates” value is “only relatively weak fluorescence enhancement”. Besides, in data set [5], the solubility turned out to be 4.7 µM (≈ 1.36 µg/mL). In [6], this molecule registered a pKa of 4.22 ± 0.12. For the same molecule, in “Photostability in DMF”, the resistance to photobleaching result is recorded as “relatively high resistance to photobleaching”. In the data set with SH-SYSY cells, the cytotoxicity entry is “no significant toxicity”. For the same molecule, the “signal-to-background ratio, elevation compared to IBC-2” value on Aβ plaques [7] is given as “approximately 3.75 fold”. Moreover, the BBB penetration result on Aβ plaques [8] (5 mg kg^−1 i.p.) is listed as “good BBB penetration”. In addition, the “time to full saturation of fluorescence enhancement of Aβ plaques in the frontal cortex” value at Aβ plaques [8] (5 mg kg^−1 i.p., excitation 920 nm) is “approximately 40 min”. Further, the “depth up to which individual Aβ plaques could be detected” value on Aβ plaques [8] (3D two-photon imaging, 5 mg kg^−1 i.p.) is at most 172. Further, the “overlap of images with co-administered MeO-X04” value on Aβ plaques [8] (co-administration, frontal cortex) is given as “near perfect overlap”. For the same molecule, the Papp at 4 h was 0.562 ± 0.053 ×10⁻⁶ cm/s in the data set “in vitro” (pH 7.4, Pe) and over 0.4 ×10⁻⁶ cm/s in “in vitro” (setting [10]).

For `Cc1ccc2c(c1)sc(-c1ccc(N(C)C)cc1)[n+]2C.[Cl-]` [Thioflavin T], the “fluorescence enhancement in the presence of Aβ fibrils” value at Aβ fibrils worked out at 20 fold. For the same molecule, the Permeability classification result in data set [9] is “Not permeable”. In addition, the Pe in data set [9] (pH 7.4, 4 h at 25° C., mean and standard deviation, n = 3) is reported as 0^c 10^−6 cm/s.
